Experimental data taken from PMC3948684, “Approaches to Improve the Oral Bioavailability and Effects of Novel Anticancer Drugs Berberine and Betulinic Acid” (PLoS ONE, 2014).

Assays:
H1650 colonies = experiment: Clonogenic assay (colony formation); format: cell-based, Human; details: BBR at 1, 3 and 10 µM
Source text: Supplementary file pone.0089919.s002.tif: Figure S2 Effect of BBR on colony formation. A) Effects of BBR free drug and BBR-SD on spheroid number B) on spheroid sizes. Representative clonogenic images of H1650 colonies form C) control and D) BBR free drug and BBR-SD treated groups. Colonies were stained with crystal violet staining for better visibility. Each data point is represented as mean±sem (n = 6–10). **p<0.01 and ***p<0.001 Vs respective untreated control groups. (TIF) Click here for additional data file.

[1] = tested on: TUNEL positive apoptotic cells; experiment: TUNEL assay on orthotopic lung tumor sections; format: in vivo, athymic Nu/nu mice
Method: Terminal deoxynucleotidyl transferase-mediated dUTP nick end labeling (TUNEL) assay was used to study the DNA fragmentation or apoptosis detection. TUNEL assay was performed on 4–5 µm thick sections as per the kit manual. Formalin-fixed tumor tissues were embedded in paraffin and sectioned ([…]). DeadEndTM Colorimetric Apoptosis Detection System (Promega, Madison, WI) allows the recognition of apoptotic nuclei in paraffin-embedded tissue sections fixed on slides according to the manufacturer's protocol. Briefly, the equilibration buffer was added to slides and incubated for 10 minutes followed by 10-minute incubation in […] proteinase K solution. The sections were washed in PBS and incubated with TdT enzyme at 37°C for 1 h in a humidified chamber for incorporation of biotinylated nucleotides at the 3-OH ends of DNA. The slides were incubated in horseradish peroxidase-labeled streptavidin to bind the biotinylated nucleotides followed by detection with stable chromagen DAB. The images on the slides were visualized with an Olympus BX40 light microscope equipped with a computer-controlled digital camera (DP71, Olympus Center Valley, PA, USA). Three slides per group were stained and apoptotic cells were identified by dark brown […] staining.

[2] = Toxicity on chronic administration (body weights, H&E histopathology); details: 100 mg/kg for 3 weeks
Method: A549 cells were grown in F12K Medium containing 10% FBS and standard antibiotic mix at 5% CO2 and 37°C. For orthotopic lung tumor model, mice were anesthetized with Isoflurane and a 5 mm skin incision was made to the left chest, 5 mm below the scapula. Hamilton syringes (1 ml) with 28-gauge hypodermic needles were used to inject the cell inoculums through the sixth intercostal space into the left lung. The needle was quickly advanced to a depth of 3 mm and quickly removed after the injection of the A549 cells (2 million/mouse) suspended in 100 µL PBS (pH 7.4) into the lung parenchyma. For metastatic lung tumor models H1650 cells (2 million in 100 µL PBS) were intravenously administered to mice via tail vein. […] Wounds from the incisions were closed with surgical skin clips. […] Drug treatment was started 2 weeks after the tumor cell implantation. BBR free drug or SD formulation was given orally at the dose of 100 mg/kg daily for 3 weeks. […] Body weights were monitored throughout the study. Animal survival rates were recorded during the study. The lung weights and tumor volumes were used for assessment of therapeutic activity of the treatments. After sacrificing the animals lung weights and tumor nodules were recorded in metastatic tumor models.
Orthotopic lung tumors and mice small intestine segments (ileum) were processed for normal histopathological procedures and 5–10 µm sections were made. After deparaffinization and rehydration, sections were stained with Hematoxylin and Eosin for normal histological evaluation. Similarly, small intestine segments were processed and stained with H&E and visualized under normal microscope.

[3] = In vitro drug release of BBR (USP type II paddle); format: physicochemical; details: after 5 h; PBS pH 5.8 with 1% volpo, 37°C
Method: In vitro drug release study was conducted in PBS (pH 5.8) containing 1% volpo. Briefly, 50 mg of free drug or equivalent amount of SD form of BBR and BA were dispersed in 500 ml of release medium and the drug release profile was studied at pH 5.8. Release studies were performed according to the USP type II paddle method, at 37±0.5°C while stirring constantly at 50 rpm. Samples were withdrawn at different time points, centrifuged and drug content in the samples was analyzed by spectrometric method of analysis. The withdrawn samples were replaced by equal volumes of fresh medium maintained at the same temperature. Except replacing the 1% Volpo with 2.5% SLS, similar conditions were maintained for the in vitro drug release studies of BA in free drug and SD forms. The released BA concentrations were measured by established HPLC method.

[4] = parameters: method as in PMID 17531424; details: single oral dose of 400 mg ref 20; cited from earlier work
[5] = Oral pharmacokinetic study; format: in vivo, Sprague Dawley rats
Method: Rats were fasted overnight before the start of the experiments and randomly divided into two experimental groups. […] Pharmacokinetic parameters were analyzed using non-compartmental techniques with WinNonlin® 5.0 software (Pharsight Corporation, Mountain View, CA, USA). SHAM analysis (i.e., Slope, Height, Area, and Moment) utilized plasma concentration-time data to estimate the area under the curve (AUC), apparent terminal elimination rate constant (λz), terminal elimination half-life (t1/2) and the area under the first moment of the plasma concentration–time curve (AUMC). The AUC was calculated for each rat using the piecewise log trapezoidal areas and extrapolated to infinity by dividing λz into the last measured plasma concentration (i.e. Clast/λz). From the values of AUC0_0-∞ and AUMC0-∞, the clearance (CL), mean residence time (MRT) and volume of distribution at tissue equilibrium (Vss) were calculated based on noncompartmental monoexponential assumptions as: CL = Dose/AUC, MRT≅AUMC/AUC and Vss = CL×MRT. The noncompartmental parameters were calculated for each rat before averaging dose groups. The pharmacokinetic parameters such as AUC, Cmax, t1/2, tmax, MRT, etc were compared between the free drug and SD formulations.

H1650 cells = experiment: In vitro cytotoxicity, crystal violet staining; format: cell-based; details: Homo sapiens, NCI-H1650; BBR, 72 h exposure
Method: (§1) NSCLC cells A549 and H1650 were plated in 96 well plates at 10,000 cells/well density. After 24 h, cells were treated with various concentrations of BBR and BA. DMSO (0.1%) treated cells were considered as control cells. After 72 h treatment, cells were fixed in 0.25% gultaraldehyde and stained with 0.05% crystal violet staining. Percent of cell viability or cell kill was calculated by considering DMSO treated control cells as 100% viable (zero % cell kill).

A549 cells = experiment: In vitro cytotoxicity, crystal violet staining; format: cell-based; details: Homo sapiens, BBR, 72 h exposure
Method: as §1

[6] = In vitro Caco-2 permeability study; details: human, Caco-2, pH 5.8
Method: Caco-2 cells (passage #29) were cultured at 37°C with culture medium replaced every 2 days in an atmosphere of 5% CO2 and 95% relative humidity. Cells were harvested upon reaching approximately 80-90% confluence with 0.25% trypsin–EDTA. Cells were grown on 1.12 cm^2 0.4 μm pore polycarbonate membrane inserts in 12 mm × 12 transwell permeable support plates (Corning, NY, USA). Caco-2 cells were seeded onto membranes at 50,000 cells/well. Individual wells received 1.5 mL of culture medium at the bottom and 0.5 mL of medium was added to the top of inserts which was changed on alternate days. Confluent monolayers were used for permeability studies at ~21 days post seeding. Transepithelial electrical resistance (TEER) of Caco-2 monolayers was measured prior to all experiments using the EVOM volt-ohm-meter (Millicell-ERS; Millipore, USA) to ensure monolayer integrity. The TEER (Ω·cm^2) values of the cell monolayers were determined by the resistance (Ω) × effective membrane area (cm^2). TEER values were measured across each cell monolayer prior to beginning the experimentation and at the last sample collection time point. Transport studies were initiated by removing culture medium from the apical (A) and basolateral (B) sides of the cell monolayer. […] The effective permeability (Peff) (cm/s) was determined using Eq. 1: […]

[7] = Sprague Dawley, rat, plasma, po, 100 mg/kg orally

With `COc1ccc2cc3[n+](cc2c1OC)CCc1cc2c(cc1-3)OCO2.[Cl-]` [BBR free drug, 5,6-dihydro-9,10-dimethoxy-benzo[g]-1,3-benzodioxolo[5,6-a]quinolizinium, chloride] the “number of colonies and colony sizes” value (H1650 colonies) was “significantly decreased”, the “increase in TUNEL positive apoptotic cells compared to control tumors” value [1] was 2.74 fold and the “H&E histopathology of small intestine (ileum)” value [2] was “No visible toxicity”. For the same molecule, the “body weight changes during treatment” value [2] was “no significant change”, the “signs of toxicity on chronic administration” value [2] was “did not result in any toxicity” and the “percent of BBR released” value [3] was “Approximately 100%”. For the same molecule, the “Cmax in human plasma” value [4] was 0.4 ng/mL, the CL ([5]; 100 mg/kg orally) was 2.034 ± 0.2813 mL/min/kg and the “AUMC (0-∞)” value ([5]; BBR, 100 mg/kg orally) was 5619.03±651.24 ng.h^2/ml. The Vss ([5]; BBR, 100 mg/kg orally) was 1.04839 ± 0.10635 L/kg, the half-life ([5]; Sprague Dawley, rat, plasma, po, 100 mg/kg, read-out: t½ (converted)) was 5.95 ± 0.47 h and the MRT [5, 7] was 6.85 ± 1.68 h. The Tmax [5, 7] was 1.41 ± 0.67 h, the AUC(0-inf) ([5]; Sprague Dawley, rat, plasma, po, BBR, 100 mg/kg orally) was 819 ± 82 ng·h/mL and the Cmax ([5]; Sprague Dawley, rat, po, BBR, 100 mg/kg orally, plasma) was 147 ± 21.8 ng/mL. For the same molecule, the IC50 (H1650 cells) was 8.39 ± 1.03 µM, the IC50 (A549 cells) was 6.45 ± 0.46 µM and the Papp A→B at 120 min, 100 µM [6] was ~0.29 ×10⁻⁶ cm/s.
